Measured values: ChEMBL document CHEMBL5154944, “Discovery of Aryloxyphenyl-Heptapeptide Hybrids as Potent and Selective Matrix Metalloproteinase-2 Inhibitors for the Treatment of Idiopathic Pulmonary Fibrosis” (J Med Chem, 2022)
Non-standard residues stand in square brackets, D forms with d. Residues, ends and D or L forms follow the SMILES beside them. *: point of attachment. Benzenesulfonyl(4-OPh) = O=S(=O)(c1ccc(Oc2ccccc2)cc1)*; NMeI = CC[C@H](C)[C@H](NC)C(=O)O; NMeE = CN[C@@H](CCC(=O)O)C(=O)O; β3hP = O=C(O)C[C@@H]1CCCN1; Dab = NCC[C@H](N)C(=O)O; GABA = NCCCC(=O)O

Columns and labels:
[1] = Volume of distribution at steady state in fasted Sprague-Dawley rat at 0.4 mg/kg, iv by LC-MS/MS analysis; assay type: ADME, organism-based; details: in vivo, read-out: Vdss
[2] = molecular target: T1, Interstitial collagenase (Homo sapiens, UniProt P03956); assay: Inhibition of recombinant human MMP1 using MOCAc-Lys-Pro-Leu-Gly-Leu-A2pr(Dnp)-Ala-Arg-NH2 as substrate preincubated for 15 mins followed by substrate addition by fluroscence based assay
T1 sequence (P03956 whole entry): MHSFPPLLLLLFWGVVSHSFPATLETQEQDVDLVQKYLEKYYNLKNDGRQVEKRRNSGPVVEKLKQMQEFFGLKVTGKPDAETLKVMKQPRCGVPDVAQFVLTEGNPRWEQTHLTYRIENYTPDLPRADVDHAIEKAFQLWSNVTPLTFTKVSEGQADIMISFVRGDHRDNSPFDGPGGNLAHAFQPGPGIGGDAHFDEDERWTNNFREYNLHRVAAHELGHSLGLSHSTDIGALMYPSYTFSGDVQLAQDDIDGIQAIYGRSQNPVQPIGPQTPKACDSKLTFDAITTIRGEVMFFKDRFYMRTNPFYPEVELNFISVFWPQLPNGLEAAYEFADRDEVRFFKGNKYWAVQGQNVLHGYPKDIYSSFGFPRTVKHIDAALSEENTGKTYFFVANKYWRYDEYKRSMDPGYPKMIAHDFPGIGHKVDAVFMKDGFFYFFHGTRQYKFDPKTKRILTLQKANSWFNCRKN

[3] = Half life in fasted Sprague-Dawley rat at 0.4 mg/kg, iv by LC-MS/MS analysis; assay type: ADME, organism-based; details: in vivo
[4] = species on record: Homo sapiens; assay: Selectivity ratio of IC50 for recombinant human MMP7 to IC50 for recombinant human MMP2
[5] = molecular target: MMP-1/MMP-2 (Homo sapiens) (UniProt P08253+P03956); assay: Selectivity ratio of IC50 for recombinant human MMP1 to IC50 for recombinant human MMP2; assay type: protein assay
[6] = species on record: Homo sapiens; assay: Selectivity ratio of IC50 for recombinant human MMP12 to IC50 for recombinant human MMP2
[7] = species on record: Homo sapiens; assay: Selectivity ratio of IC50 for recombinant human MMP8 to IC50 for recombinant human MMP2
[8] = molecular target: MMP-2/MMP-9 (Homo sapiens) (UniProt P08253+P14780); assay: Selectivity ratio of IC50 for recombinant human MMP9 to IC50 for recombinant human MMP2; assay type: protein assay
[9] = molecular target: MMP-2/MMP-14 (Homo sapiens) (UniProt P50281+P08253); assay: Selectivity ratio of IC50 for recombinant human MMP14 to IC50 for recombinant human MMP2; assay type: protein assay
[10] = physchem; details: buffer, pH 7.4
[11] = molecular target: Stromelysin-1 (Homo sapiens, UniProt P08254); assay: Inhibition of recombinant human MMP3 using MOCAc-Lys-Pro-Leu-Gly-Leu-A2pr(Dnp)-[…] as substrate preincubated for 15 mins followed by substrate addition by fluroscence based assay
[12] = molecular target: Collagenase 3 (Homo sapiens, UniProt P45452)
[13] = Clearance in fasted Sprague-Dawley rat at 0.4 mg/kg, iv by LC-MS/MS analysis; assay type: ADME, organism-based; details: in vivo
[14] = molecular target: Matrix metalloproteinase-14 (Homo sapiens, UniProt P50281); assay: Inhibition of recombinant human MMP14 using MOCAc-Lys-Pro-Leu-Gly-Leu-A2pr(Dnp)-Ala-Arg-NH2 as substrate preincubated for 15 mins followed by substrate addition by fluroscence based assay
[15] = molecular target: Neutrophil collagenase (Homo sapiens, UniProt P22894)
[16] = molecular target: T2, Matrilysin (Homo sapiens, UniProt P09237)
T2 sequence (P09237 whole entry): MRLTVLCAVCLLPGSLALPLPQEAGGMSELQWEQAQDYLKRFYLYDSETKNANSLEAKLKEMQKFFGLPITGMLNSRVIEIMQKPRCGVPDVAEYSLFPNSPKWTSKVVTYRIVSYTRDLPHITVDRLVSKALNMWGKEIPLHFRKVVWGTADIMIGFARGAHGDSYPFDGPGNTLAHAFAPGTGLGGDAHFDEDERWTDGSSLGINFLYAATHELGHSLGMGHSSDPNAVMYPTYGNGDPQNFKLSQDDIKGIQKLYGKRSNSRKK

[17] = molecular target: 72 kDa type IV collagenase (Homo sapiens, UniProt P08253)
[18] = species on record: Homo sapiens; assay: Selectivity ratio of IC50 for recombinant human MMP3 to IC50 for recombinant human MMP2
[19] = molecular target: Matrix metalloproteinase-9 (Homo sapiens, UniProt P14780)
[20] = Metabolic stability in rat hepatocytes assessed as parent compound remaining incubated for 1 hr by LC-MS/MS; assay type: ADME, cell-based, Hepatocyte; details: read-out: Stability

MMP-1/MMP-2 (Homo sapiens), sequence (P08253 whole entry, looked up, one chain of several): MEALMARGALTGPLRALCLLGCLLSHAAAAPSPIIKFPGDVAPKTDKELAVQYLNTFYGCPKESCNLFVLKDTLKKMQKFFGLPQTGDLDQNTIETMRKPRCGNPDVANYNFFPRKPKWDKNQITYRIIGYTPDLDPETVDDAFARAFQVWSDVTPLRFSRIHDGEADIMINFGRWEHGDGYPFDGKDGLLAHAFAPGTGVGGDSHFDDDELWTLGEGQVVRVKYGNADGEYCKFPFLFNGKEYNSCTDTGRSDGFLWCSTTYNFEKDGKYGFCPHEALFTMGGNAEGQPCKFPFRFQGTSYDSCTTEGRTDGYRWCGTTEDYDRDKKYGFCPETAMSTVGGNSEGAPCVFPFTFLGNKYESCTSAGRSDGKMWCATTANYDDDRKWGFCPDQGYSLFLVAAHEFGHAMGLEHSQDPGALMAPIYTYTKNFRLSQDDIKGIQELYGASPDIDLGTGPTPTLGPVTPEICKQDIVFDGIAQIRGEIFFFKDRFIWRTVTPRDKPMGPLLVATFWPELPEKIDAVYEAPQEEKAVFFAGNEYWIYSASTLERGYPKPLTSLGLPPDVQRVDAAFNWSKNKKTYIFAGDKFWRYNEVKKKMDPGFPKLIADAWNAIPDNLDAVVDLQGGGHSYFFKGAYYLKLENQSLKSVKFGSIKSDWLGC
72 kDa type IV collagenase, sequence (P08253 whole entry): as the sequence (P08253 whole entry, looked up, one chain of several) above
Matrix metalloproteinase-9, sequence (P14780 whole entry): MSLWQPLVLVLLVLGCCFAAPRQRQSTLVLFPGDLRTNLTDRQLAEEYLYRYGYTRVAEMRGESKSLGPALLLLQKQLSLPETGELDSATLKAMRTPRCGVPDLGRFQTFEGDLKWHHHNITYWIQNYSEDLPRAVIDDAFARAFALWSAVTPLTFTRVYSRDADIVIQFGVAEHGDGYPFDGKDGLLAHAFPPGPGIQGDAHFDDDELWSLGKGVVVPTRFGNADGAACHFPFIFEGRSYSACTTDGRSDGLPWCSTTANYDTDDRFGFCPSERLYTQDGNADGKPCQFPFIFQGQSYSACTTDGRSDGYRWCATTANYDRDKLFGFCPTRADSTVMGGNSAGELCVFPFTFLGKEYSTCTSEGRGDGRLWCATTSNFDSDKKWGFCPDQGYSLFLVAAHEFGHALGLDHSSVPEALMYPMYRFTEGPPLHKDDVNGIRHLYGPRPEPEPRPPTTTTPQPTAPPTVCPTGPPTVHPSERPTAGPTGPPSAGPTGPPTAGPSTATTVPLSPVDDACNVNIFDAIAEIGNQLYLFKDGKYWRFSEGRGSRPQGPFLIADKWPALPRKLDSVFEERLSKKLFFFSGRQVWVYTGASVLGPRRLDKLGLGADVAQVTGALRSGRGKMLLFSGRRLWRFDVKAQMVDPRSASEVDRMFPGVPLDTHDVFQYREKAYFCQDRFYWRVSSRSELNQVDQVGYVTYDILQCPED
Stromelysin-1, sequence (P08254 whole entry): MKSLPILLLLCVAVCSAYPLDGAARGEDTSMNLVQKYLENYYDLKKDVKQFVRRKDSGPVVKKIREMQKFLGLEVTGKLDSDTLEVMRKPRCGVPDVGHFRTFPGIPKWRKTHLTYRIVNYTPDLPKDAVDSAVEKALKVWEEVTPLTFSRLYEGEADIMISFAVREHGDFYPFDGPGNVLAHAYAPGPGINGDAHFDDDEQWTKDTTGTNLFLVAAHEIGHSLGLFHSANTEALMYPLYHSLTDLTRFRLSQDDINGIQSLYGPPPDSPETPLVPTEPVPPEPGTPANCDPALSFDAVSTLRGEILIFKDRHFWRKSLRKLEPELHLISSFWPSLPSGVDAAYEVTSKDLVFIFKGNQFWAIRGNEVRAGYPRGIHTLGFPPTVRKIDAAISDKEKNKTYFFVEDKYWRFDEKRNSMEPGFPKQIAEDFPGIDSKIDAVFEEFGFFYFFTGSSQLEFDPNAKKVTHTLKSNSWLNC
Neutrophil collagenase, sequence (P22894 whole entry): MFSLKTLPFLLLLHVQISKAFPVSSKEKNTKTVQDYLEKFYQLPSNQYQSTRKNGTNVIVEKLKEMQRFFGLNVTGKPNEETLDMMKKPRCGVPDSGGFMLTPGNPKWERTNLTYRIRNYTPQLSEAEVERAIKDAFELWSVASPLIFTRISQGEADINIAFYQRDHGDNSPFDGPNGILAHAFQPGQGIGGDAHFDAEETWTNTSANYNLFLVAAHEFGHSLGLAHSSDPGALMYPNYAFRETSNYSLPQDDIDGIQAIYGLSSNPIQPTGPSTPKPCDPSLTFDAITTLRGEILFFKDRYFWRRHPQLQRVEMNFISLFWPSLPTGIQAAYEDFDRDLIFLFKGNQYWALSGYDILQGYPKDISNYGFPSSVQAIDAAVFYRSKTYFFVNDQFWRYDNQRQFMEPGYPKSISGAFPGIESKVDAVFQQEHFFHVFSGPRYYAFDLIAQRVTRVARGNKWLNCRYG

Work on `CC[C@H](C)[C@@H](C(=O)N1CCC[C@H]1CC(N)=O)N(C)C(=O)[C@H](CC(C)C)NC(=O)[C@H](C)NC(=O)[C@H](CC(=O)O)NC(=O)[C@H](CC(N)=O)NC(=O)CCCNS(=O)(=O)c1ccc(Oc2ccccc2)cc1` ({Benzenesulfonyl(4-OPh)-GABA}-NDAL[NMeI][β3hP]-NH2) yielded a Vd [1] of 0.882 L/kg, an IC50 [2] greater than 10000 nM and a half-life [3] of 8 min. For the same compound, the Ratio IC50 [4] was 38100, the Ratio IC50 [5] was 182000 and the Ratio IC50 [6] was 85. It also gave a Ratio IC50 [7] of 4740, a Ratio IC50 [8] of 3290 and a Ratio IC50 [9] of 200. The logD [10] was 1.53, the IC50 [11] was greater than 10000 nM and the IC50 [12] was 21 nM. For the same compound, the clearance [13] was 74.5 mL/min/kg, the IC50 [14] was 11 nM and the IC50 [15] was 261 nM. The IC50 [16] was 2100 nM, the IC50 [17] was 0.055 nM and the Ratio IC50 [18] was greater than 182000. The IC50 [19] was 181 nM and the remaining at 1 h, 1 µM [20] was 68.4%.

Compound `CC(C)C[C@H](NC(=O)[C@H](CCN)NC(=O)[C@H](CC(=O)O)NC(=O)[C@H](CC(N)=O)NC(=O)CCCNS(=O)(=O)c1ccc(Oc2ccccc2)cc1)C(=O)N(C)[C@@H](CCC(=O)O)C(=O)N1CCC[C@H]1CC(N)=O` ({Benzenesulfonyl(4-OPh)-GABA}-ND[Dab]L[NMeE][β3hP]-NH2) has a Vd [1] of 0.275 L/kg, an IC50 [2] greater than 10000 nM and a half-life [3] of 9 min. For the same compound, the Ratio IC50 [4] was greater than 147000, the Ratio IC50 [5] was greater than 147000 and the Ratio IC50 [6] was 7240. It also gave a Ratio IC50 [7] of 86500, a Ratio IC50 [8] greater than 147000 and a Ratio IC50 [9] of 7740. For the same compound, the logD [10] was 1.26, the IC50 [11] was greater than 10000 nM and the IC50 [12] was 364 nM. For the same compound, the clearance [13] was 20.2 mL/min/kg, the IC50 [14] was 526 nM and the IC50 [15] was 5880 nM. It also gave an IC50 [16] greater than 10000 nM, an IC50 [17] of 0.068 nM and a Ratio IC50 [18] greater than 147000. The IC50 [19] was greater than 10000 nM and the remaining at 1 h, 1 µM [20] was 91.7%.
